According to PMC5983305, “Bioactive Pyridone Alkaloids from a Deep-Sea-Derived Fungus Arthrinium sp. UJNMF0008” (Marine Drugs, 2018):

Experiments:
[1] = system: Mycobacterium smegmatis ATCC 607; experiment: Antimicrobial assay, liquid growth inhibition in 96-well microplates; format: cell-based; details: Mycolicibacterium smegmatis; Mycobacterium smegmatis ATCC607; OD 600 nm after 12 h at 37 °C; read-out: Antibacterial activity IC50, MS
Method: (§1) The antimicrobial activity was assayed against the Gram-positive bacterial strains Mycobacterium smegmatis ATCC 607 and Staphylococcus aureus ATCC 25923, Gram-negative Escherichia coli ATCC 8739 and Pseudomonas aeruginosa ATCC 9027 and yeast Candida albicans ATCC10231 by liquid growth inhibition in 96-well microplates. Briefly, precultures of the tested microorganisms were made by inoculating 10 mL of medium (LB medium for bacteria and YM medium for fungus) and incubated for 24 h at 37 °C for bacteria or 48 h at 28 °C for fungus. Then, the cell density was adjusted to 10^4−10^5 cfu mL^−1 by the corresponding broth. An aliquot of 200 μL of the microbial suspension was distributed in each well containing 2-fold serial dilution of the tested compounds. The plate was incubated at 37 °C for 12 h for the bacteria or at 28 °C for 48 h for the fungus, and the optical density of each well was measured at 600 nm spectrophotometrically. IC50 values were defined as the concentration of a compound resulting in a 50% decrease in the number of microbial cultures compared to the blank control. The experiment was run in three replicates.

[2] = system: Staphylococcus aureus ATCC 25923; experiment: as above; format: cell-based; details: Staphylococcus aureus ATCC25923; OD 600 nm after 12 h at 37 °C; read-out: Antibacterial activity IC50, SA
Method: as §1

IC50 [1] [µM]	IC50 [2] [µM]	SMILES
19.4	8.37	CO[C@H]1[C@H](O)CC[C@](O)(c2c[nH]c(=O)c(C(=O)[C@H]3[C@@H]4CC[C@@H](C)C[C@H]4C=C[C@H]3C)c2O)[C@@H]1O [Compound 5, Arthpyrone H]
35.3	14.1	CO[C@]1(c2c[nH]c(=O)c(C(=O)[C@H]3[C@@H]4CC[C@@H](C)C[C@H]4C=C[C@H]3C)c2O)CC[C@@H](O)[C@H](O)[C@H]1O [Compound 6, Arthpyrone I]
2.2	1.66	CC1CCC2C(C=CC(C)C2C(=O)c2c(O)c(C3(O)CCC(O)C4OC43)c[nH]c2=O)C1 (stereo not drawn) [Compound 9, apiosporamide]

The remaining lines, values behind:

SMILES	IC50 [1] [µM]	IC50 [2] [µM]
CO/N=C(\C(=O)N[C@@H]1C(=O)N2C(C(=O)O)=C(CSc3nc(=O)c(=O)[nH]n3C)CS[C@H]12)c1csc(N)n1 [Ceftriaxone sodium, reference compound]	< 1	< 1
CC1CCC2C(C=CC(C)C2C(=O)c2c3c(c[nH]c2=O)C2(O)CCC(O)C(O)C2O3)C1 (stereo not drawn) [Compound 3, Arthpyrone F]	11.4	8.97
C[C@@H]1CC[C@H]2[C@H](C(=O)c3c(=O)[nH]cc4c5c(oc34)[C@H](O)[C@H](O)CC5)[C@H](C)C=C[C@@H]2C1 [Compound 4, Arthpyrone G]	> 50	42.8
